According to patent US9051300B2, “Herbicides” (Syngenta Limited, priority 2009, dated 2015):

Tests used:
Format in all cases: in vivo
[1] = system: Winter Wheat variety 'Hereward'; assay: Crop damage to winter wheat seed treated with safener cloquintocet mexyl, post-emergence spray; conditions: 250 g/ha, seed treated with cloquintocet mexyl 0.5 g/kg seed, evaluated after 13 days, 100=total damage, 0=no damage
Protocol: Seeds of the Winter Wheat variety ‘Hereward’ were seed treated with a wettable powder formulation of the cereal herbicide safener, cloquintocet mexyl, at a rate of 0.5 grams per kilogram of dry seed prior to the initiation of glasshouse testing. One seed was sown per 1.5 inch plastic pot into a sandy loam soil at a depth of 1 cm, 8 days prior to application of the test compounds and was watered and grown under controlled conditions in a glasshouse (at 24/16° C., day/night; 14 hours light; 65% humidity). The plants were sprayed post-emergence with an aqueous spray solution derived from the formulation of the technical active ingredient in acetone/water (50:50) solution containing 0.5% Tween 20 (polyoxyethylene sorbitan monolaurate, CAS RN 9005-64-5). The test plants were then grown in a glasshouse under controlled conditions in a glasshouse (at 24/16° C., day/night; 14 hours light; 65% humidity) and watered twice daily. After 13 days for pre and post-emergence, the test was evaluated (100=total damage to plant; 0=no damage to plant).

[2] = system: Avena fatua (AVEFA); assay: Pre-emergence herbicidal activity, glasshouse pot test; conditions: rate not printed (columns shifted), evaluated after 13 days, 100=total damage to plant, 0=no damage
Protocol: (§1) Seeds of a variety of test species are sown in standard soil in pots. After cultivation for one day (pre-emergence) or after 8 days cultivation (post-emergence) under controlled conditions in a glasshouse (at 24/16° C., day/night; 14 hours light; 65% humidity), the plants are sprayed with an aqueous spray solution derived from the formulation of the technical active ingredient in acetone/water (50:50) solution containing 0.5% Tween 20 (polyoxyethylene sorbitan monolaurate, CAS RN 9005-64-5). The test plants are then grown in a glasshouse under controlled conditions in a glasshouse (at 24/16° C., day/night; 14 hours light; 65% humidity) and watered twice daily. After 13 days for pre and post-emergence, the test is evaluated (100=total damage to plant; 0=no damage to plant). Lolium perenne (LOLPE), Alopecurus myosuroides (ALOMY), Echinochloa crus-galli (ECHCG), Avena fatua (AVEFA) Pre-Emergence Activity

[3] = system: Alopecurus myosuroides (ALOMY); assay: as above; conditions: rate not printed (columns shifted), evaluated after 13 days, 100=total damage to plant, 0=no damage
Protocol: as §1

[4] = system: Lolium perenne (LOLPE); assay: as above; conditions: rate not printed (columns shifted), evaluated after 13 days, 100=total damage to plant, 0=no damage
Protocol: as §1

[5] = system: Echinochloa crus-galli (ECHCG); assay: as above; conditions: rate not printed (columns shifted), evaluated after 13 days, 100=total damage to plant, 0=no damage
Protocol: as §1

[6] = system: Winter Wheat variety 'Hereward'; assay: Crop damage to winter wheat, post-emergence spray; conditions: 250 g/ha, no safener, evaluated after 13 days, 100=total damage to plant, 0=no damage
Protocol: Seeds of the Winter Wheat variety ‘Hereward’ were sown in standard soil in pots. After 8 days cultivation under controlled conditions in a glasshouse (at 24/16° C., day/night; 14 hours light; 65% humidity), the plants were sprayed post-emergence with an aqueous spray solution derived from the formulation of the technical active ingredient in acetone/water (50:50) solution containing 0.5% Tween 20 (polyoxyethylene sorbitan monolaurate, CAS RN 9005-64-5). The test plants were then grown in a glasshouse under controlled conditions in a glasshouse (at 24/16° C., day/night; 14 hours light; 65% humidity) and watered twice daily. After 13 days for pre and post-emergence, the test was evaluated (100=total damage to plant; 0=no damage to plant).

[7] = system: Avena fatua (AVEFA); assay: Post-emergence herbicidal activity, glasshouse pot test; conditions: 312 h, evaluated after 13 days, 100=total damage to plant, 0=no damage
Protocol: as §1, with “Post-Emergence” for “Pre-Emergence”

[8] = system: Alopecurus myosuroides (ALOMY); assay: as above; conditions: 312 h, evaluated after 13 days, 100=total damage to plant, 0=no damage
Protocol: as §1, with “Post-Emergence” for “Pre-Emergence”

[9] = system: Lolium perenne (LOLPE); assay: as above; conditions: 312 h, evaluated after 13 days, 100=total damage to plant, 0=no damage
Protocol: as §1, with “Post-Emergence” for “Pre-Emergence”

[10] = system: Echinochloa crus-galli (ECHCG); assay: as above; conditions: 312 h, evaluated after 13 days, 100=total damage to plant, 0=no damage
Protocol: as §1, with “Post-Emergence” for “Pre-Emergence”

SMILES	Winter Wheat (Hereward) + cloquintocet mexyl (damage to plant) [1]	Pre-Emergence Activity AVEFA (damage to plant) [2]	Pre-Emergence Activity ALOMY (damage to plant) [3]	Pre-Emergence Activity LOLPE (damage to plant) [4]	Pre-Emergence Activity ECHCG (damage to plant) [5]	Winter Wheat (Hereward) (damage to plant) [6]	pest or weed control at 250 g/ha [7]	pest or weed control at 250 g/ha [8]	pest or weed control at 250 g/ha [9]	pest or weed control at 250 g/ha [10]
Cc1cc(-c2ccc(Cl)cc2)nn1C1C(=O)CC(Cc2ccc(F)cn2)C1=O (stereo not drawn) [Compound A20]	70	20	40	70	100	70	90%	80%	90%	100%
Cc1cc(-c2ccc(Cl)cc2)nn1C1C(=O)C/C(=C\c2ccc(F)cn2)C1=O (stereo not drawn) [Compound A21]	10	10	40	90	90	20	30%	70%	60%	90%
Cc1cc(-c2ccc(Cl)cc2)nn1C1C(=O)C/C(=C/c2ccc(F)cn2)C1=O (stereo not drawn) [Compound A22]	10	20	40	60	70	60	60%	70%	50%	90%
Cc1cc(-c2ccc(Cl)cc2)nn1C1C(=O)C/C(=C\C2CCOCC2)C1=O (stereo not drawn) [Compound A23]	60	90	90	100	100	80	100%	90%	100%	100%
Cc1sc(-c2ccc(Cl)cc2)nc1C1C(=O)C/C(=C\C2CCOCC2)C1=O (stereo not drawn) [Compound A24]	0	60	60	100	100	70	90%	100%	90%	100%
Cc1cc(-c2ccc(Cl)cc2)nn1C1C(=O)CC(CC2CCOCC2)C1=O (stereo not drawn) [Compound A25]	40	70	70	90	100	80	100%	100%	100%	100%
